# Assay results from US20200009281A1, “ODOR CONTROL AGENT” (priority 2017, published 2020).
# Target: T1, Urease Enzyme from Canavalia ensiformis (Jack bean) (Canavalia ensiformis, UniProt P07374)
# T1 construct: purchased
# Assay: Headspace ammonia measurement over treated cat litter inoculated with synthetic urine and urease
# Type: biochemical
# Conditions: headspace ammonia after 1 day; 100 g NATIONAL 12 Bentonite cat litter plus active, 10 mL inoculant (urea solution + urease); Sensidyne detector tubes
# Protocol: In a bottle add the following components: Urea (ACS Reagent Grade): 18.8 g, and 250 g of deionized water. The bottle is capped and mixed to dissolve urea. The pH of the solution is measured to confirm the pH is between 6.5 and 7.
# Immediately before use, mix 6.25 mL of Urease Enzyme from Canavalia ensiformis (Jack bean) in Glycerol (Type III, 500-800 units/mL) with the full volume of Synthetic Urine prepared above.
# Charge a plastic bag with 100 g of untreated NATIONAL™ 12 Bentonite (particle size approximately 1.6 mm) cat litter. Add the active component or mixture, as prepared in the Active Mixture Preparation section, to the bag containing the untreated litter. Seal the bag to prevent loss of material and mix by shaking for 30 seconds. Pour the mixture into a hexagonal plastic weighboat contained within a 1 gallon sealable plastic container having a lid with a hole covered with tape. […]
# Low (0.2-20 ppm) or high (5-260 ppm) range […] ® Ammonia Gas Detector Tubes are used to quantify the headspace ammonia concentration. The following procedure is used for ammonia detection and quantification in each test sample. […] Read the scale at the maximum point of the stained layer (yellow in color). Read and report the concentration immediately after measurement. If the reading is off scale, for example 20 ppm for the low range tubes, repeat the measurement using the high range gas detector tube. […]
# T1 sequence (P07374 whole entry, looked up): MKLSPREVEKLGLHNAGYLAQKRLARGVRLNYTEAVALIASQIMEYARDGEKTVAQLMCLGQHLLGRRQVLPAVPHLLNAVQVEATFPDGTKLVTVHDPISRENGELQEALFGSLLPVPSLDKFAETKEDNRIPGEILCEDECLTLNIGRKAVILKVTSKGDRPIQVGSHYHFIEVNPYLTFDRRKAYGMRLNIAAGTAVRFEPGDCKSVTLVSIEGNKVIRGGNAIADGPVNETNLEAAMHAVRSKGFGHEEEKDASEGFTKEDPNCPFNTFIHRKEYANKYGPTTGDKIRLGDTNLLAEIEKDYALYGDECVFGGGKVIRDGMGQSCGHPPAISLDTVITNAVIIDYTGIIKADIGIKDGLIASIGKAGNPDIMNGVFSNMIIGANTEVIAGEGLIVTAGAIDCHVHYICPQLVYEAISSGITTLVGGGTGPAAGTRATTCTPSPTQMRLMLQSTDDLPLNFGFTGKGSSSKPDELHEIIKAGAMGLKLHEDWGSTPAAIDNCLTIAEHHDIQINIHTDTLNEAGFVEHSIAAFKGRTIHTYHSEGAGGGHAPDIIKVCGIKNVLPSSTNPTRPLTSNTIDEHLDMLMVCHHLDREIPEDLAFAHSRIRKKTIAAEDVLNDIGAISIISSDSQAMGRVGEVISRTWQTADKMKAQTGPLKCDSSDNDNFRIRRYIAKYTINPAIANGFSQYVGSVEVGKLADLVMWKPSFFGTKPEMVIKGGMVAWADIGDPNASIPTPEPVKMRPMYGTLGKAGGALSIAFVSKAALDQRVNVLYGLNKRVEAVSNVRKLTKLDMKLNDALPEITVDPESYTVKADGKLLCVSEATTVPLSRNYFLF
row,Structure (SMILES),ppm Ammonia [ppm]
1,"O=C([O-])CN(CCN(CC(=O)[O-])CC(=O)O)CC(=O)O.[K+].[K+] [Example 2, K2EDTA]",190
2,"O=C(O)CC(O)(CC(=O)O)C(=O)O [Example 3, Citric Acid]",140
